Among the data in ChEMBL document CHEMBL2074478, “Cisplatin induces renal expression of P-glycoprotein and canalicular multispecific organic anion transporter” (Am J Physiol, 1999) are Activity values, retold here.

Data set [1] deals with ATP-binding cassette sub-family C member 2 (Rattus norvegicus, UniProt Q63120). Nature of the data set: (§1) TP_TRANSPORTER: Western in vivo, kidney of SD rat. Type of data set: functional, organism-based, Sprague-Dawley.
In data set [2] the target is Multidrug resistance protein 1a (Rattus norvegicus) (UniProt Q6PSM0). Nature of the data set: TP_TRANSPORTER: Western in vivo, liver of SD rat. Type of data set: functional, organism-based. Particulars: Sprague-Dawley.
For data set [3] the target is unchanged. Nature of the data set: TP_TRANSPORTER: Western in vivo, intestine of SD rat. Type of data set: functional, organism-based. To be noted: Sprague-Dawley.
Data set [4] shares this target. Described as §1. Format: functional, organism-based. To be noted: Sprague-Dawley.

Chain of ATP-binding cassette sub-family C member 2 (Q63120 whole entry): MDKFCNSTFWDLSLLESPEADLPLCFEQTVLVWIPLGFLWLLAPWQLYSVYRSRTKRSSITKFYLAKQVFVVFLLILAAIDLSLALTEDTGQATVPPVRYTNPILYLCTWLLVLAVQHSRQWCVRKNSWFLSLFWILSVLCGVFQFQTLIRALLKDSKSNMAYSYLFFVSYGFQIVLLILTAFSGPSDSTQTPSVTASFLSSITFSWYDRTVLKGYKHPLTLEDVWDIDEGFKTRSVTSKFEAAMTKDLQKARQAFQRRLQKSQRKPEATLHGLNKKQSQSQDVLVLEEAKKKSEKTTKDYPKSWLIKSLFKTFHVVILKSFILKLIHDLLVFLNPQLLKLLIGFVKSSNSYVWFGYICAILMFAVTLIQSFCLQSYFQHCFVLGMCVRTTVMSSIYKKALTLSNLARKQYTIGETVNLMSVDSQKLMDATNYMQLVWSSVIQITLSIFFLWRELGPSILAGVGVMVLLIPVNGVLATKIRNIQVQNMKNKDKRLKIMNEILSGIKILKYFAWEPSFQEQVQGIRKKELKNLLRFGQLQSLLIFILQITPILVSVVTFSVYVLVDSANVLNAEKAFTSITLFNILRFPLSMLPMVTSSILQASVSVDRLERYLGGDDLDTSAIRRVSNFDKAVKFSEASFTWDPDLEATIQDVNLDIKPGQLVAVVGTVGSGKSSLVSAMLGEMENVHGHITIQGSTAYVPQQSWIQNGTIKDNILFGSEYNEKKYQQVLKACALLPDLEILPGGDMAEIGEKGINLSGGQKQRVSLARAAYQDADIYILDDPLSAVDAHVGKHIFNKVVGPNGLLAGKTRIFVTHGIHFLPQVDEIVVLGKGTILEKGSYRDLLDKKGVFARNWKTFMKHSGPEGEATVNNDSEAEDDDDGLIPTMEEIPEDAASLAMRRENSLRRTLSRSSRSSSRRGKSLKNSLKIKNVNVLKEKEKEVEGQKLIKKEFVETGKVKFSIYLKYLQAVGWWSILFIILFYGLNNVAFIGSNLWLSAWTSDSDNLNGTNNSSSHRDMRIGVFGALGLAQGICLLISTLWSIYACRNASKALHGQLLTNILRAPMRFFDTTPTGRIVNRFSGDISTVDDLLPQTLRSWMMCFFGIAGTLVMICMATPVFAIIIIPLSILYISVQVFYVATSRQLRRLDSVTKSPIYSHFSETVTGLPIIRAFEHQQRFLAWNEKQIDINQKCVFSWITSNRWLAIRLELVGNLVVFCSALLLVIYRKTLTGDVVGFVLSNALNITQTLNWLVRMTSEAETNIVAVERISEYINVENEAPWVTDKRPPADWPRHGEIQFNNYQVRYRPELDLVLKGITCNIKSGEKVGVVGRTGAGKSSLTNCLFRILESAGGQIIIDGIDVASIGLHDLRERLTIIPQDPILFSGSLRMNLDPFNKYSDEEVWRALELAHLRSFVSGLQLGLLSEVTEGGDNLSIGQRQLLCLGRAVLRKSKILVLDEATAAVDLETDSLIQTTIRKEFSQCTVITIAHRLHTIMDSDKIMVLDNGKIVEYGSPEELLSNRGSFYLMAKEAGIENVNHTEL

Consider CISPLATIN [listing 1 of 2 here], for which the Activity entry in data set [1] was “inducer [+]”.
For CISPLATIN [listing 2 of 2 here], the Activity entry in data set [2], in data set [3] and in data set [4] was “inducer [+]” in each case.
